Test results taken from PubChem BioAssay (NCI).
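48-hour exposure; five concentrations; linearly interpolated endpoints. GI50 is the concentration that inhibits growth by half. TGI: total growth inhibition.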

Tests used:
Assay in all cases: NCI-60 cell line screen, 48 h
NCI-H522 lung = test system: NCI-H522 lung
HOP-62 NSCLC = test system: HOP-62 NSCLC
ACHN renal = test system: ACHN renal
OVCAR-5 ovarian = test system: OVCAR-5 ovarian
HL-60(TB) leukemia = test system: HL-60(TB) leukemia
786-0 renal = test system: 786-0 renal
TK-10 renal = test system: TK-10 renal
NCI-H226 lung = test system: NCI-H226 lung
HOP-92 NSCLC = test system: HOP-92 NSCLC

SMILES	GI50 (NCI-H522 lung) [µM]	TGI (NCI-H522 lung) [µM]	GI50 (HOP-62 NSCLC) [µM]	TGI (HOP-62 NSCLC) [µM]	GI50 (ACHN renal) [µM]	TGI (ACHN renal) [µM]	GI50 (OVCAR-5 ovarian) [µM]	TGI (OVCAR-5 ovarian) [µM]	GI50 (HL-60(TB) leukemia) [µM]	TGI (HL-60(TB) leukemia) [µM]	GI50 (786-0 renal) [µM]	TGI (786-0 renal) [µM]	GI50 (TK-10 renal) [µM]	TGI (TK-10 renal) [µM]	GI50 (NCI-H226 lung) [µM]	TGI (NCI-H226 lung) [µM]	GI50 (HOP-92 NSCLC) [µM]	TGI (HOP-92 NSCLC) [µM]
CCCCCCCCn1ccc2cc(NC(=O)Cn3cc(CN4CCCC4)nn3)ccc21	1.75	3.6	1.75	3.49	1.69	3.07	1.78	4	1.83	3.8	1.69	3.13	1.71	3.3	1.59	3.16		
O=c1cc(-c2ccccc2)oc2cc(OC/C(=N/O)c3ccccc3)ccc12	9.61	> 50	22.4	> 50	9.41	20.2	> 50	> 50	> 50	> 50	26.1	> 50	7.18	19.9	23.5	> 50	13.8	> 50
Cc1cc(Cl)cc2c1NC(=O)C2(O)CC(=O)c1ccco1 (configuration not stated)		> 100		> 100		> 100		> 100				> 100		> 100		> 100		> 100
COc1ccc(-c2nc(-c3nc4ccc(Cl)cc4[nH]3)c3ccccn23)cc1	4.24	18.4	1.96	3.76	1.86	3.75	7.32	29.3	49.8	> 100	1.6	3.22	2.01	5.11	1.94	4.46	2.19	6.09
COc1cc(Nc2nc3ccccc3nc2-c2cccs2)cc(OC)c1OC				> 100		> 100		> 100		> 100		> 100		> 100		> 100		83.9
CCOC(=O)/C(C#N)=C/c1[nH]c(C(=O)OCc2ccccc2)c(C)c1C		> 100		> 100		> 100		> 100		> 100		> 100		> 100				> 100
O=C(Nc1ccc(-c2nc(N3CCOCC3)c3cccn3n2)cc1)Nc1cccnc1	0.125	> 100	0.336	> 100	0.189	3.64	0.071	> 100	0.359	> 100	0.178	1.98			0.141	1.1		0.0637
O=C(CC1(O)C(=O)Nc2ccccc21)c1ccncc1 (configuration not stated)		> 100				> 100		> 100		> 100		> 100				> 100		> 100
O=C1c2ccccc2C(=O)N1CCc1ncc[nH]1		> 100				> 100		> 100				> 100		> 100				> 100
C/C(CC(=O)Nc1cc(C)ccc1C)=N\NC(=O)c1ccncc1		> 100		> 100				> 100		> 100		> 100		> 100		> 100		> 100
Cc1ccc(C(=O)NC(C)C)cc1-c1ccc(C(=O)NCC2CC2)cc1	> 25	> 25	> 25	> 25	> 25	> 25	> 25	> 25	> 25	> 25	> 25	> 25	> 25	> 25	> 25	> 25		
CCCC1N2CCCCC2[C@@H]2c3[nH]c4ccccc4c3CCN12 (some centres not stated)				> 100		> 100		> 100		> 100		> 100						> 100
CCOC(=S)SSSC(=S)OCC				> 100		41.9		86.6		> 100		28.5		> 100		> 100		> 100
Cc1ccc(NC(=O)CC(=O)n2nc(C)c(N=Nc3ccccc3C(=O)O)c2C)cc1		> 100		> 100				> 100		> 100		> 100		> 100				
NC(=O)NS(=O)(=O)c1ccc(N2N=C(C(F)(F)F)CC2c2cc(C(F)(F)F)cc(C(F)(F)F)c2)cc1 (configuration not stated)			6.53	22.4	3.95	14.9	13.7	29.8	3.89	> 100	7.14	22.7	9.25	24.8	7.21	21.8	12.9	29.3
N#CC(C#N)=C1Nc2ccccc2S1	32.4	> 100	40.3	> 100					30.1	> 100	41	> 100	29.2	82.1	27.3	76.8	2.59	18.1
COc1ccc2c(c1)[n+](=O)c(C(=O)C/C(=N/OCCCc1ccccc1)C(=O)NC13CC4CC(CC(C4)C1)C3)c(C)n2[O-]		> 100		> 100		> 100		> 100		> 100		> 100		> 100		> 100		
CC1(C)OC2=C(CC1Br)C(=O)C(=O)c1ccccc12 (configuration not stated)	1.62	3.03	1.99	3.62	2.03	3.84			1.8	4.57	1.91	3.43	1.99	3.45	1.7	3.12	2.33	3.97
CC(C)(CO)N1CCN(C(=S)Nc2ccccc2)CC1		> 100		> 100		> 100		> 100				> 100		> 100		> 100		> 100
Nc1cccc(S(=O)(=O)NCC(=O)O)c1		> 100		> 100		> 100		> 100				> 100		> 100		> 100		
